Data: patent US11447531B2, “Cleavable peptides and insecticidal and nematicidal proteins comprising same” (Vestaron Corporation, priority 2016, dated 2022)

Molecular target: T1, pepsin from porcine gastric mucosa (Sus scrofa, UniProt P00791)
T1 construct: from tissue; host or cells: porcine gastric mucosa
Assay: not given
Type: biochemical
Conditions: not given

T1 sequence (P00791 60-385): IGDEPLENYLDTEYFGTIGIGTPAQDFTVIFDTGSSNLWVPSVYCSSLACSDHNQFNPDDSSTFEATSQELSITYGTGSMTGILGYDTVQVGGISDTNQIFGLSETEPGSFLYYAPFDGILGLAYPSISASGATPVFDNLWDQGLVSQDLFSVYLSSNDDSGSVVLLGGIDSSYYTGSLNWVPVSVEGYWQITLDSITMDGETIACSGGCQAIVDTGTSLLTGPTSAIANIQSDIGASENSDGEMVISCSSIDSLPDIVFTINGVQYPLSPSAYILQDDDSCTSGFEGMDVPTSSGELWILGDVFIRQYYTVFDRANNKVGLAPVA

Substance | cleavage of linking peptide in SGF (His-tagged western blot)
ALKLFVGS (cleavable linker) | digestion and disappearance of the protein band
IFVRLRGS (cleavable linker) | digestion and disappearance of the protein band
IGER (listed as Pisum sativum) [control peptide that is only cleaved in insects, reference compound] | retention of the intact protein band

Tested on: gut extract isolated from Southern Corn Rootworm
Assay: not given
Type: biochemical, Diabrotica undecimpunctata
Conditions: not given

Substance | cleavage of linking peptide in SCR gut extract (His-tagged western blot)
ALKLFVGS (cleavable linker) | digestion and disappearance of the protein band
IFVRLRGS (cleavable linker) | digestion and disappearance of the protein band
IGER (listed as Pisum sativum) [control peptide that is only cleaved in insects, reference compound] | retention of the intact protein band

Molecular target: T2, pepsin or simulated human gastric fluid (SGF) (Sus scrofa, UniProt P00791)
T2 construct: purchased Sigma P6887
Assay: not given
Type: biochemical
Conditions: not given

T2 sequence (P00791 60-385): as above

Substance | cleavability by human gastrointestinal proteases | % of Max Slope [%] | SGF cleavage (in words) | % of Max Slope, Y [%]
AAPF [reference compound] | neither FRET nor protein showed any cleavability |  |  | 
AFF |  | 63 |  | 
AFY |  | 63 |  | 
AIF |  | 78 |  | 
ALF |  | 78 |  | 
ALKLFV (cleavable linker) |  |  | rapid | 
ALKLFVGS (cleavable linker) |  |  |  | 88
ALY |  | 78 |  | 
AYF |  | 63 |  | 
DFF |  | 66 |  | 
DFY |  | 66 |  | 
DYF |  | 66 |  | 
EFF |  | 66 |  | 
EFY |  | 66 |  | 
EYF |  | 66 |  | 
FFA |  | 84 |  | 
FFI |  | 78 |  | 
FFL |  | 78 |  | 
FFV |  | 84 |  | 
FYA |  | 84 |  | 
FYI |  | 78 |  | 
FYL |  | 78 |  | 
FYV |  | 84 |  | 
IFA |  | 65 |  | 
IFV |  | 65 |  | 
IFVALKGS (cleavable linker) |  |  |  | 88
IFVRLR (cleavable linker) |  |  | rapid | 

Substance | cleavability by human gastrointestinal proteases | % of Max Slope [%] | SGF cleavage (in words) | % of Max Slope, Y [%]
IIF |  | 63 |  | 
ILF |  | 63 |  | 
ILY |  | 63 |  | 
LFA |  | 65 |  | 
LFV |  | 65 |  | 
LFVALKGS (cleavable linker) |  |  |  | 76
LFVRLRGS (cleavable linker) |  |  |  | 74
LIF |  | 63 |  | 
LIY |  | 63 |  | 
LKLFVGS (cleavable linker) |  |  |  | 67
LLF |  | 63 |  | 
LRLFVGS (cleavable linker) |  |  |  | 75
LYA |  | 65 |  | 
LYF |  | 100 |  | 
LYV |  | 65 |  | 
LYY |  | 100 |  | 
VFF |  | 63 |  | 
VFY |  | 63 |  | 
VIF |  | 78 |  | 
VLF |  | 78 |  | 
VLY |  | 78 |  | 
VYF |  | 63 |  | 
YFA |  | 84 |  | 
YFI |  | 78 |  | 
YFL |  | 78 |  | 
YFV |  | 84 |  | 
YYL |  | 78 |  | 

Tested on: CEW gut extract
Assay: not given
Type: biochemical, Helicoverpa zea
Conditions: not given

Substance | cleavage of linking peptide in CEW gut extract (His-tagged western blot)
ALKLFVGS (cleavable linker) | digestion and disappearance of the protein band
IFVRLRGS (cleavable linker) | digestion and disappearance of the protein band
IGER (listed as Pisum sativum) [control peptide that is only cleaved in insects, reference compound] | only cleaves in the CEW gut extract

Tested on: insect and/or nematode protease (X condition)
Assay: Round 2 and spacer FRET cleavage, X (insect) cleavage condition
Type: biochemical
Conditions: Round 2 FRET, X-Y combinations
Experimental: Round 2 data from FRET molecules that represented a subset of binary combinations based on the observed top hits in Round 1 provided a hierarchical ranking of the various binary combinations. Round 2 FRET molecules were synthesized, resuspended, and tested in cleavage enzyme assays as described above in Round 1. Many combinations of binary cleavable linking peptides were tested against LEP, COLEOP and SGF conditions.
Data from the Round 2 FRET that exemplifies the combination of both X and Y cleavability in a binary or tertiary peptide are presented in Table 6.
To screen for potential spacers, FRET peptides were ordered as the binary peptide ALKLFVZ1Z2 and varied amino acids in positions Z1 and Z2. Some of the amino acids were screened as individuals and some were screened as pools. The peptides were re-suspended using 50% acetonitrile in water at a concentration of 2 μM of each peptide. For the one containing more than one FRET peptide, they were re-suspended so that each peptide was as 2 μM (assuming an equal portion of each one). These were then re-suspended and screened as described above for Round 1. The data does confirm that some amino acids in the Z position are more favorable than others. […] The greater the value of the slope in Table 7 the greater the activity of the amino acid when part of a spacer. The column in Table 7 labeled “Slope” indicates the speed of cleavage of the Linker.

Substance | % of Max Slope, X [%]
ALKLFVGS (cleavable linker) | 100
IFVALKGS (cleavable linker) | 69
LFVALKGS (cleavable linker) | 92
LFVRLRGS (cleavable linker) | 94
LKLFVGS (cleavable linker) | 98
LRLFVGS (cleavable linker) | 74

Tested on: gut enzymes of Southern Corn Rootworm
Assay: FRET peptide cleavage by coleopteran gut enzymes (COLEOP)
Conditions: COLEOP (X); pooled FRET screening Round 1; slope of fluorescence over 10 minutes, steepest slope = 100%; representative cleavable sequences

Substance | % of Max Slope [%]
AIK | 70
AIR | 70
ALK | 70
ALR | 70
IKA | 56
IKN | 100
IKQ | 100
IKS | 68
IKT | 68
IKV | 56
INK | 56
INR | 56
IQK | 56
IQR | 56
IRN | 100
IRQ | 100
IRS | 68
IRT | 68
KIK | 83
KIR | 83
KLK | 83
KLR | 83
LKN | 100
LKQ | 100
LKS | 68

Substance | % of Max Slope [%]
LKT | 68
LNK | 56
LNR | 56
LQK | 56
LQR | 56
LRN | 100
LRQ | 100
LRS | 68
LRT | 68
NIK | 74
NIR | 74
NLK | 74
NLR | 74
QIK | 74
QIR | 74
QLK | 74
QLR | 74
RIK | 83
RIR | 83
RLK | 83
RLR | 83
VIK | 70
VIR | 70
VLK | 70
VLR | 70

Same assay, conditions: COLEOP (X); pooled FRET screening; failed cleavable sequences

Substance | % of Max Slope [%]
IKN | 0
IKQ | 0
IRN | 0
IRQ | 0
LKN | −2

Same assay, conditions: insect (COLEOP) simulated gut environment

Substance | COLEOP cleavage (in words)
ALKLFV (cleavable linker) | rapid
IFVRLR (cleavable linker) | rapid

Tested on: gut enzymes of Corn Earworm
Assay: FRET peptide cleavage by lepidopteran gut enzymes (LEP)
Type: biochemical, Helicoverpa zea
Conditions: LEP (X); pooled FRET screening Round 1; slope of fluorescence over 10 minutes, steepest slope = 100%; representative cleavable sequences
From the text: Corn Earworm insects were obtained commercially from Benzon Research (Carlisle, Pa.) as eggs. Hatched larvae were raised on artificial diet until ⅘^th instar (20 mm long) before guts were isolated. Before gut extract, larvae were anesthetized using CO2. The larva was then pinned on the dissection plate at both the head and the tail. Using dissection scissors, the cuticle was nicked. The dissection scissors were then inserted into the nick and the […] along the insect. The cuticle was then carefully pulled back and pinned open to reveal the digestive track. Using DI water, the insect was thoroughly rinsed to remove hemolymph. The gut was then excised with tweezers and placed in a solution of 500 μL of 200 mM Tris-HCl pH 8.1 150 mM NaCl (assay buffer). The tube was pre-weighed and post-weighed to calculate the total amount of gut added. CEW gut was diluted to a stock concentration of 7 mg/ml (10×) in 200 mM Tris-HCl pH 8.1 150 mM NaCl. This was diluted fresh each plate by 20× with the assay buffer.

Substance | % of Max Slope [%]
AKF | 93
AKS | 90
AKT | 90
AKY | 93
ARF | 93
ARS | 90
ART | 90
ARY | 93
ISK | 89
ISR | 89
ITK | 89
ITR | 89
KKF | 92
KKS | 93
KKT | 93
KKY | 92
KRF | 92
KRS | 93
KRT | 93
KRY | 92
KSK | 90
KSR | 90
KTK | 90
KTR | 90
LSK | 89

Substance | % of Max Slope [%]
LTR | 89
PKK | 100
PKR | 100
PRK | 100
PRR | 100
RKF | 92
RKS | 93
RKT | 93
RKY | 92
RRF | 92
RRS | 93
RRT | 93
RRY | 92
RSK | 90
RSR | 90
RTK | 90
RTR | 90
VKF | 93
VKS | 90
VKT | 90
VKY | 93
VRF | 93
VRS | 90
VRT | 90
VRY | 93

Same assay, conditions: LEP (X); pooled FRET screening; failed cleavable sequences

Substance | % of Max Slope [%]
PKK | 0
PKR | 0
PRK | 0
PRR | 0
VRY | 0

Same assay, conditions: insect (LEP) simulated gut environment

Substance | LEP cleavage (in words)
ALKLFV (cleavable linker) | rapid
IFVRLR (cleavable linker) | rapid
